Reference: patent US20240336588A1, “COMPOSITIONS AND METHODS FOR ANTIOXIDANT AND ANTI-INFLAMMATORY THERAPEUTICS” (AVANTI BIOSCIENCES INC., priority 2021, published 2024)
Read-outs that look alike come from different tables or passages of the source.

Key:
[1] = molecular target: DYRK1A (HT-497, 6×His tagged rat truncated DYRK1A isoform X1 residues 1-497) (Rattus norvegicus (Rat), UniProt Q63470); test: DYRK1A ELISA assay (HT-PRD phosphorylation); assay type: biochemical; conditions: 100 µM ATP, 5 ng HT-497, 30 min at 30° C.
[2] = molecular target: DYRK1B (GST tagged full length human DYRK1B isoform p65) (Homo sapiens (Human), UniProt Q9Y463); test: DYRK1B ELISA assay; assay type: biochemical; conditions: 70 ng GST-DYRK1B, kinase reaction time 60 min
DYRK1B (GST tagged full length human DYRK1B isoform p65), sequence (Q9Y463 other isoform, or with tags, fused parts or gaps): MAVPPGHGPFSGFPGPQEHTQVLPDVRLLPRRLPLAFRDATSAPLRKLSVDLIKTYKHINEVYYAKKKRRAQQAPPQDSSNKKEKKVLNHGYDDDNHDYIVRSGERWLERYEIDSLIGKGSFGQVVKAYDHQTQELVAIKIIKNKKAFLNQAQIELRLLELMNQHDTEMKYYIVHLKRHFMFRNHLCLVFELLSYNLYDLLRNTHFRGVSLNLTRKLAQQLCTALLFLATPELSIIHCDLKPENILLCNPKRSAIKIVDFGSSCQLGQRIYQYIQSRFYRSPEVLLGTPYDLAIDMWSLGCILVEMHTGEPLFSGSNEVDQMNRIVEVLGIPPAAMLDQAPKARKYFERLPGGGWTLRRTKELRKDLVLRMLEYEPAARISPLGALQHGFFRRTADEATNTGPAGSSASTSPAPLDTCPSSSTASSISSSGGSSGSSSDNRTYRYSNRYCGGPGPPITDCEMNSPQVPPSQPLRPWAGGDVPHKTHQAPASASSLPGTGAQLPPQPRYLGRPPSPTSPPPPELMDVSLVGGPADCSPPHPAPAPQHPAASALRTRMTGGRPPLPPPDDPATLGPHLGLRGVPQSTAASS
Method: DYRK1A assay. […] After blocking, wells were washed extensively with dilution buffer before subjecting to phosphorylation. […] At the end point, wells were washed with ˜350 μl dilution buffer three times to terminate the reaction. […] Each point was run in quadruplicate with DMSO present in all assays at 0.2% final concentration. […] HT-PRD phosphorylation was subsequently determined by the sandwich antibody staining protocol, first with 100 μl mouse mAb 3D3 specific for detecting DYRK1A-phosphorylated PRD (60 min at room temperature) then with 100 μl alkaline phosphatase (AP)-linked anti-mouse secondary antibody (60 min at room temperature), followed by colorimetric reaction with 100 μl PNPP solution (PNPP substrate tablet, Thermo Fisher). […] The readings were then recorded for subsequent IC50 calculation. The DYRK1A assay protocol can also support DYRK1B and DYRK2 phosphorylation reactions in the enzyme concentration-dependent manner; therefore, the method was adapted for measuring the activity of candidate compounds against DYRK1B and DYRK2. For DYRK2, the reactions were performed as described above with 6 ng HT-DYRK2 (6×His tagged full-length human DYRK2 isoform 1). For DYRK1B, the assays were also similarly conducted but with 70 ng GST-DYRK1B (glutathione S-transferase tagged full length human DYRK1B isoform p65) and an extended kinase reaction time of 60 min.
Data transformation, calculation, plotting, curve fitting, and IC 50 calculation were performed in KaleidaGraph (http://www.synergy.com/wordpress_650164087; Mac version 4.1). Data was corrected for background (readings from wells with only PNPP) before subsequent manipulations. […] The resulting residual activity was then plotted against its corresponding inhibitor concentrations in semi-log graph and the plot was fit to the sigmoidal equation, y=a+(b−a)/(1+(x/c)^d), for IC50 calculation.
Compounds of Table 1, above, were examined in vitro for activity against DYRK1B, via an ELISA assay.

[3] = molecular target: COX1 (Homo sapiens (Human), UniProt P23219); test: Eurofins safetyscreen87 panel; assay type: biochemical
COX1, sequence (P23219 24-599): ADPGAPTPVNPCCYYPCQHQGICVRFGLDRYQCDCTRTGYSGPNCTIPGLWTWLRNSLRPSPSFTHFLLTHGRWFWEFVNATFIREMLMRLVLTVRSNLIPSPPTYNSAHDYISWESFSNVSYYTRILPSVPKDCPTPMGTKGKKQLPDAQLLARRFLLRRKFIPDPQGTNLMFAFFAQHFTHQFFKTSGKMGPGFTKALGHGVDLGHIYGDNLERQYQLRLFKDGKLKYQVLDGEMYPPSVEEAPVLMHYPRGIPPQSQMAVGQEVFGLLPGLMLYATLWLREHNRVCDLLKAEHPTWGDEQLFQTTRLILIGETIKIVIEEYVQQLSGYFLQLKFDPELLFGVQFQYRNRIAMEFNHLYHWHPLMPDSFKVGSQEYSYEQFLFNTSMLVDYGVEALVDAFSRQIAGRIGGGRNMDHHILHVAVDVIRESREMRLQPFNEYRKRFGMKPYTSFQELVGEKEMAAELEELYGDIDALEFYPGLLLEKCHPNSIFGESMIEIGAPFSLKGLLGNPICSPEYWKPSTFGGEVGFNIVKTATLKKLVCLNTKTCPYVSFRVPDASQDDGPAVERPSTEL

[4] = molecular target: COX2 (Homo sapiens (Human), UniProt P35354); test: Eurofins safetyscreen87 panel; assay type: biochemical
COX2, sequence (P35354 18-604): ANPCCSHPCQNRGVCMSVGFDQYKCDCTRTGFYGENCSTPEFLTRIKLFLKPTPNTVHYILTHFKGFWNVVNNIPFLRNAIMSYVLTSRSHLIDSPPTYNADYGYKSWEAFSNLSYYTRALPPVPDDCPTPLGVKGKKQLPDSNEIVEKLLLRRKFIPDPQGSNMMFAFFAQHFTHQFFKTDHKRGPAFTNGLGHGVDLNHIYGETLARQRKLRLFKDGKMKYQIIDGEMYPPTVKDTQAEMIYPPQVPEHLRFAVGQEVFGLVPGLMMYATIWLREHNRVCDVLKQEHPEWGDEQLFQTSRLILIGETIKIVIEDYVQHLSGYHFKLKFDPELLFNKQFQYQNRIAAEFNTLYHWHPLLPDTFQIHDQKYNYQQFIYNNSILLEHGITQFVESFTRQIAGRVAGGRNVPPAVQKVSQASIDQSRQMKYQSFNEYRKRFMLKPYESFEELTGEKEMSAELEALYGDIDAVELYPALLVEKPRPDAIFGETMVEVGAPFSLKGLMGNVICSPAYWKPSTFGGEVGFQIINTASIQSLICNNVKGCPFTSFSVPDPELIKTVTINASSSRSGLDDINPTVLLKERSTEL

[5] = molecular target: PDE3A (Homo sapiens (Human), UniProt Q14432); test: Eurofins safetyscreen87 panel; assay type: biochemical
PDE3A, sequence (Q14432 whole entry): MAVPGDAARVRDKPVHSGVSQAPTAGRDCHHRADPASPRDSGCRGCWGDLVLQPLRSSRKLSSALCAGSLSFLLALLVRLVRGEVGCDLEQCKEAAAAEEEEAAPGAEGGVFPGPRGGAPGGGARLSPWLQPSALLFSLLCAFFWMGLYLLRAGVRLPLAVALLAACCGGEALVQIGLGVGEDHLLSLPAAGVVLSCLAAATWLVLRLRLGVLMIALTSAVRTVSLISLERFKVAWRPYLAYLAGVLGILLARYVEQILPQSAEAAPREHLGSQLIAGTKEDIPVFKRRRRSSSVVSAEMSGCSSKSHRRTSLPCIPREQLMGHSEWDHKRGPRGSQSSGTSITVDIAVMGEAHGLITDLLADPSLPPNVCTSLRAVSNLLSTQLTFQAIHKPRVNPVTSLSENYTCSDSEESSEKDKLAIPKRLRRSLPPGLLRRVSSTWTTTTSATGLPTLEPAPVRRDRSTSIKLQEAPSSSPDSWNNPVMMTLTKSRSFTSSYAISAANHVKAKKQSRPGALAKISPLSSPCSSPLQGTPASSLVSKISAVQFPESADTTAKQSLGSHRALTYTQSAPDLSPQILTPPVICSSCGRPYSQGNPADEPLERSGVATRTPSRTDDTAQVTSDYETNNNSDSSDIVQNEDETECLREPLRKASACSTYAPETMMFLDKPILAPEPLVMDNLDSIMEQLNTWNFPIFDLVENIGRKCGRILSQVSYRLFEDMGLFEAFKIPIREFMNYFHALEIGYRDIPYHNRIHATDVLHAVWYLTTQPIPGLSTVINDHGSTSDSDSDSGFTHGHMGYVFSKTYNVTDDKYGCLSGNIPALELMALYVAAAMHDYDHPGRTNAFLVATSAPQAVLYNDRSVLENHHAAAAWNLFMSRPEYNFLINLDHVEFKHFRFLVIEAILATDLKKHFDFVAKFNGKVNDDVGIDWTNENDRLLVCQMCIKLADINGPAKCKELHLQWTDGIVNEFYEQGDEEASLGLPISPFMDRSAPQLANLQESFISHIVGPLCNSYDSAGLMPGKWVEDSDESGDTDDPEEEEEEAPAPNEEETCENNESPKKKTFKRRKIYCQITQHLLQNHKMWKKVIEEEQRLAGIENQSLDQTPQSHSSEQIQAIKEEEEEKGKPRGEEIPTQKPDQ

[6] = molecular target: Potassium channel hERG (Homo sapiens (Human), UniProt Q12809); test: Eurofins safetyscreen87 panel; assay type: binding; conditions: c=10 μM
Potassium channel hERG, sequence (Q12809 whole entry): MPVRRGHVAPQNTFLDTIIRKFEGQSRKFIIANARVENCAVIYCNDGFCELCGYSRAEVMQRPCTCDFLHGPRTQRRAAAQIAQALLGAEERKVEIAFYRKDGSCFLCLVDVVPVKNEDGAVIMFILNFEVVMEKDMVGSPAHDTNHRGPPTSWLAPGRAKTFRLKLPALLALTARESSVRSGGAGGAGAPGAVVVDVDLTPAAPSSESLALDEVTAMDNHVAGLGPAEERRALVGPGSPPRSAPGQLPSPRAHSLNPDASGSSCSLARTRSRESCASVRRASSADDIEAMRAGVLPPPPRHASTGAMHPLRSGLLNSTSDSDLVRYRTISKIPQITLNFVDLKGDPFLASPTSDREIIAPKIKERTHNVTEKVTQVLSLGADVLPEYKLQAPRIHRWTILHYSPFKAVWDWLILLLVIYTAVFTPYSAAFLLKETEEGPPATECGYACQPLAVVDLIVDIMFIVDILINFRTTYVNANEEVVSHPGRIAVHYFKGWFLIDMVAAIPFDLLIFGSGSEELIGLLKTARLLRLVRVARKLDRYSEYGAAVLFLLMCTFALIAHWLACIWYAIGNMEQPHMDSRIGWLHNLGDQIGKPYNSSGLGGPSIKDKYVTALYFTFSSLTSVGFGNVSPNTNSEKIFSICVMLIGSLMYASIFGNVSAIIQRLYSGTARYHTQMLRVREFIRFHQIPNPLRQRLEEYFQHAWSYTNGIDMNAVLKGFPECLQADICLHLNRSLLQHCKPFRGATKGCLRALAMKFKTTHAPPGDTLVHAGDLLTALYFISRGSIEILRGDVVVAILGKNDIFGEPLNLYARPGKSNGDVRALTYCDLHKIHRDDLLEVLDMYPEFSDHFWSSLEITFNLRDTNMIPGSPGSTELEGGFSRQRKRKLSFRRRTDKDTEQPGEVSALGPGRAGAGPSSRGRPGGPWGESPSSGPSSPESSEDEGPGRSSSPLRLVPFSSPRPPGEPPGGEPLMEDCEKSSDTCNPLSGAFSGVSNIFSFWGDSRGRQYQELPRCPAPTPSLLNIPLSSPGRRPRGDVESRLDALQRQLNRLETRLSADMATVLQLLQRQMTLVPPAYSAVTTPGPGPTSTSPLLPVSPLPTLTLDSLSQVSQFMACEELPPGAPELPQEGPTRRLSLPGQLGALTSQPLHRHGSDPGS

[7] = test system: 87 different targets; test: Eurofins safetyscreen87 panel (whole panel)
[8] = test system: 12 transporter proteins including BCRP and PgP; test: Transporter substrate test (Eurofins panels); assay type: in vitro ADME
[9] = test system: 8 major CYP enzymes; test: CYP inhibition in human liver microsomes; assay type: in vitro ADME; conditions: c=10 μM
Method: Compound 68 was also tested for its inhibitor activity against the 8 major CYP enzymes in human liver microsomes.

[10] = test system: Salmonella typhimurium (TA98, TA100, TA97a, and TA1535); test: mini-Ames assay; conditions: 5 concentrations up to 100 μM, absence or presence of rat liver S9
Method: The compound dissolved in DMSO was evaluated at 5 concentrations up to […] in the absence or presence of metabolic activation (rat liver S9).

[11] = test system: lipopolysaccharide (LPS)-induced TNF-α model; test: Lipopolysaccharide (LPS)-induced TNF-α model; assay type: in vivo, C57BL/6 mice; conditions: intranasally 3, 10, 30 mg/kg and orally 30 mg/kg, 5 days
Method: 12-week-old male C57BL/6 mice were used.
On day 5, one hour after LPS treatment, all animals were euthanized via CO2. The plasma, hippocampus and cortex were collected and immediately stored at liquid nitrogen and transferred to −80° C. Tissues were used for ELISA and Western Blot analysis to determine levels of TNF-α and pTau.

[12] = mouse, in vivo
[13] = male, C57BL/6, mouse, in vivo
[14] = in vivo; conditions: male, C57BL/6, mouse
[15] = in vivo; conditions: male, C57BL/6, mouse; remark: listed apart in the source
[16] = inhaled or intranasal, 30 mg/kg
[17] = inhaled or intranasal, 10 mg/kg

COc1cc(C(=O)O[C@@H]2Cc3c(O)cc(O)cc3O[C@H]2c2cc(O)c(O)c(O)c2)c(F)c(O)c1O [Compound 68, (2S,3R)-5,7-dihydroxy-2-(3,4,5-trihydroxyphenyl)chroman-3-yl 2-fluoro-3,4-dihydroxy-5-methoxybenzoate]
IC50 [1]: < 100 nM
IC50 [2]: < 100 nM
IC50 [3]: 1200 nM
IC50 [4]: 182 nM
IC50 [5]: 380 nM
activity against the Potassium channel hERG [6]: No activity
activity against other ion channels ([7]; c=10 μM): No activity
profile over 87 different targets ([7]; screened at c=10 µM, significant activity only against COX1, COX2, PDE3A): very clean profile
substrate of transporter proteins [8]: not a substrate of any of them
inhibition of the CYP enzymes [9]: no inhibition
cytotoxicity in bacteria [10]: No evidence of cytotoxicity
mutagenicity [10]: not mutagenic
lipopolysaccharide-induced expression of TNF-alpha ([11]; hippocampus and plasma, ELISA, FIGS. 3-4): inhibit
lipopolysaccharide-induced pTau ([11]; hippocampus, Western Blot (AT8 antibody), FIG. 5): inhibit
T1/2 ([12]; inhaled or intranasal): 1.06 H
T1/2 [12, 16]: 1.97 H
T1/2 ([12]; iv, 5 mg/kg): 1.04 H
T1/2 ([12]; po, 30 mg/kg): 1.27 H
time measurable in whole-brain homogenate after dosing [13]: 4 h
CL/F ([14]; 30 mg/kg): 842 mL/min/kg
Vd/F ([14]; 30 mg/kg): 17.1 L/kg
AUC(0-inf) [14, 17]: 716 ng·h/mL
AUC(0-t) [14, 17]: 702 ng·h/mL
CL/F [14, 17]: 240 mL/min/kg
Cmax [14, 17]: 489 ng/mL
Vd/F [14, 17]: 41.7 L/kg
bioavailability [14, 17]: > 100%
AUC(0-inf) [14, 16]: 4990 ng·h/mL
AUC(0-t) [14, 16]: 4950 ng·h/mL
Cmax [14, 16]: 3140 ng/mL
bioavailability [14, 16]: > 100%
AUC(0-inf) ([14]; iv, 5 mg/kg): 348 ng·h/mL
AUC(0-t) ([14]; iv, 5 mg/kg): 334 ng·h/mL
Cmax ([14]; iv, 5 mg/kg): 257 ng/mL
Vd ([14]; iv, 5 mg/kg): 22 L/kg
clearance ([14]; iv, 5 mg/kg): 240 mL/min/kg
AUC(0-inf) ([14]; po, 30 mg/kg): 92 ng·h/mL
AUC(0-t) ([14]; po, 30 mg/kg): 78 ng·h/mL
CL/F ([14]; po, 30 mg/kg): 100 mL/min/kg
Cmax ([14]; po, 30 mg/kg): 41 ng/mL
Vd/F ([14]; po, 30 mg/kg): 602 L/kg
bioavailability ([14]; po, 30 mg/kg): 4%
concentration at 1 h [15]: 120 ng/g
